Experimental data from patent US11691989B2, “Macrocyclic indoles as Mcl-1 inhibitors” (ASCENTAGE PHARMA (SUZHOU) CO., LTD., priority 2018, dated 2023).

Experiments:
[1] = molecular target: Mcl-1 protein (residues 171-323) (Homo sapiens (Human), UniProt Q07820); assay: Inhibition of Mcl-1 by fluorescence polarization (FP) competitive binding assay with FAM-Bid tracer; conditions: 2 nM FAM-Bid, 20 nM Mcl-1, 30 min, read-out: Mc1-1 (FP)
How it was run: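 Competitive FP binding of compounds against FAM-Bid tracer (final 2 nM) on Mcl-1 (final 20 nM) in PBS with 0.01% BGG and 0.01% Triton X-100, 5% final DMSO.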

[2] = Kinetic solubility assay in PBS buffer; type: physicochemical; conditions: PBS buffer, pH 6.5, aqueous buffer, thermodynamic from solid, read-out: Solubility (pH 6.5, μg/mL)
Experimental: Representative Compounds of the Disclosure were tested in a kinetic solubility assay in PBS buffer. PBS buffer was prepared by dissolving 4.86 g of potassium dihydrogen phosphate and 5.09 g of disodium hydrogen phosphate dodecahydrate in 1 L of ultrapure water (final pH 6.5). 0.5 mg of test sample was dissolved in 1 mL of methanol and the stock solution was transferred into 2 mL EP tube, and evaporated at 50° C. for 3 h. To the tube was added 1 mL of PBS buffer and the mixture was stirred and shaken for 1-2 h. The solution was allowed to stand overnight and then filtered before HPLC analysis. Another 1.5 mg of the sample was dissolved in 3 mL of methanol to prepare a calibration curve with a series of concentration range of 5-500 μM. The solubility of each sample was determined by the measured peak area in HPLC.

OPM-2 cells = assay: Cell viability assay (OPM-2 cells), CCK-8; type: cell-based; conditions: 5% FBS
How it was run: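 OPM-2 myeloma cells (20000/well) incubated with serially diluted compound for 24 h at 37 °C, 5% CO2. Viability read by CCK-8 (4 h) absorbance at 450 nm, normalised to vehicle; IC50 from nonlinear regression.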

NCI-H929 cells = assay: Cell viability assay (NCI-H929 cells), CCK-8; type: cell-based; conditions: 5% FBS
How it was run: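 NCI-H929 cells (20000/well) exposed to serially diluted compounds for 24 h at 37 °C, 5% CO2. Viability by CCK-8, absorbance at 450 nm after 1-4 h, normalized to vehicle-treated cells. IC50 by nonlinear regression.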

[3] = Microsome clearance assay, mouse; type: in vitro ADME; conditions: 0.5 mg/ml protein, 1 mM NADPH, 60 minutes; for microsomal CLint at 5 μM: male, CD-1, mouse, pooled liver microsomes, pH 7.4, mouse liver microsomes, read-out: Mouse Liver Microsome Clint (μL/min/mg protein)
Experimental: (§1) Representative Compounds of the Disclosure were tested in a microsome clearance assay. Pooled liver microsomes (20 mg/ml) from human, male Wister rat, and male CD-1 mouse were obtained from BD Bioscience (Franklin Lakes, N.J. USA). Incubation reaction mixtures contained a final concentration of 0.1M sodium phosphate buffer (pH 7.4), 0.5 mg/ml microsomal protein, 5 μM of test sample and 1 mM NADPH in a total volume of 400 μl. The incubations were done for 60 minutes and 300 μl of the mixtures was transferred to 150 μl of ice cold methanol to terminate reactions. After vortexes for 3 minutes and centrifuged at 4000 rpm at 4° C. for 10 minutes, the clear supernatant was used directly for analysis. The samples were analyzed by Applied Biosystems API 3200 Q TRAP LC/MS/MS system using electrospray ionization mode.

[4] = Microsome clearance assay, rat; type: in vitro ADME; conditions: 0.5 mg/ml protein, 1 mM NADPH, 60 minutes; for microsomal CLint at 5 μM: male, Wister, rat, pooled liver microsomes, pH 7.4, rat liver microsomes, read-out: Rat Liver Microsome Clint (μL/min/mg protein)
Experimental: as §1

[5] = Microsome clearance assay, human; type: in vitro ADME; conditions: 0.5 mg/ml protein, 1 mM NADPH, 60 minutes; for microsomal CLint at 5 μM: human, pooled liver microsomes, pH 7.4, human liver microsomes, read-out: Human Liver Microsome Clint (μL/min/mg protein)
Experimental: as §1

Mcl-1 protein (residues 171-323), sequence (Q07820 171-323): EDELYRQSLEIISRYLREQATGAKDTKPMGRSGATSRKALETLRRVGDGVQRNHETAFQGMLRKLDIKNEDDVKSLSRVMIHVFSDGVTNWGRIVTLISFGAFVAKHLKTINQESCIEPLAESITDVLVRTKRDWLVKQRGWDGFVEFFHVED

Row | IC50 [1] [nM] | solubility [2] [µg/mL] | IC50 (NCI-H929 cells; Homo sapiens, NCI-H929, 24 h) [nM] | microsomal CLint at 5 μM [3] [µL/min/mg] | microsomal CLint at 5 μM [4] [µL/min/mg] | microsomal CLint at 5 μM [5] [µL/min/mg] | Mouse Liver Microsome Clint (μL/min/mg protein) ([3]; mouse liver microsomes, 5 μM) | Rat Liver Microsome Clint (μL/min/mg protein) ([4]; rat liver microsomes, 5 μM) | Human Liver Microsome Clint (μL/min/mg protein) ([5]; human liver microsomes, 5 μM) | IC50 (NCI-H929 cells; 24 hrs) [nM] | Compound | IC50 (OPM-2 cells; Homo sapiens, OPM-2, 24 h) [nM] | IC50 (OPM-2 cells; 24 hours) [nM]
1 | 17 | – | 1540 | 30.6 | 15 | 7.4 | – | – | – | – | Cc1c(C(=O)O)n2c3ccc(Cl)c(c13)-c1c(nn3c1COCC3)CN(CCNS(C)(=O)=O)Cc1cc(n(C)n1)CSc1cc(c3ccc(F)cc3c1)OCCC2 [Cpd. No. 51, (Z)-1^5-chloro-9^6-fluoro-1^3, 6^1-di methyl-4-(2-(methylsulfonamido)ethyl)-26,27-dihydro-1^1H,2^4H,6^1H-10-oxa-8-thia-4-aza-2(3,2)-pyrazolo[5,1-c][1,4]oxazina-1(4,1)-indola-6(3,5)-pyrazola-9(3,1)-naphthalenacyclotridecaphane-1^2-carb oxylic acid] | 5820 | –
2 | 20 | – | 226 | 65.2 | 22.2 | 10.2 | – | – | – | – | COCCN1Cc2cc(n(C)n2)CSc2cc(c3ccc(F)cc3c2)OCCCn2c(C(=O)O)c(C)c3c(c(Cl)ccc32)-c2c(nn3c2COCC3)C1 [Cpd. No. 50, (Z)-1^5-chloro-9^6-fluoro-4-(2-methoxyethyl)-1^3, 6^1-dim ethyl-2^6,2^7-dihydro-1^1H,2^4H,6^1H-10-oxa-8-thia-4-aza-2(3,2)-pyrazolo[5,1-c][1,4]oxazina-1 (4,1)-indola-6(3,5)-pyrazola-9(3,1)-naphthalenacyclotridecaphane-1^2-carboxylic acid] | 1640 | –
3 | 34 | – | 222 | 59.2 | 30 | 18.6 | – | – | – | – | Cc1c(C(=O)O)n2c3ccc(Cl)c(c13)-c1c(nn(C)c1C)CN(C(C)C)Cc1cc(n(C)n1)CSc1cc(c3ccc(F)cc3c1)OCCC2 [Cpd. No. 53, (Z)-1^5-chloro-9^6-fluoro-4-isopropyl-1^3,2^1,2^5,6^1-tetramethyl-1^1H,2^1H,6^1H-10-oxa-8-thia-4-aza-1(4,1)-indola-2(4,3),6(3,5)-dipyrazola-9(3,1)-naphthalenacyclotridecaphane-1^2-carboxylic acid] | 1710 | –
4 | 15 | – | 25 | 156 | 42 | 53.2 | – | – | – | – | Cc1c(C(=O)O)n2c3ccc(Cl)c(c13)-c1c(nn(C)c1C)CN(S(=O)(=O)C(F)(F)F)Cc1cc(n(C)n1)CSc1cc(c3ccc(F)cc3c1)OCCC2 [Cpd. No. 35, (Z)-1^5-chloro-9^6-fluoro-1^3,2^1,2^5,6^1-tetramethyl-4-((trifluoromethyl)sulfonyl)-1^1H,2^1H,6^1H-10-oxa-8-thia-4-aza-1(4,1)-indola-2(4,3),6(3,5)-dipyrazola-9(3,1)-naphthalenacyclotridecaphane-1^2-carboxylic acid] | 57 | –

The remaining lines, values behind:

Row | Compound | IC50 [1] [nM] | solubility [2] [µg/mL] | IC50 (NCI-H929 cells; Homo sapiens, NCI-H929, 24 h) [nM] | microsomal CLint at 5 μM [3] [µL/min/mg] | microsomal CLint at 5 μM [4] [µL/min/mg] | microsomal CLint at 5 μM [5] [µL/min/mg] | Mouse Liver Microsome Clint (μL/min/mg protein) ([3]; mouse liver microsomes, 5 μM) | Rat Liver Microsome Clint (μL/min/mg protein) ([4]; rat liver microsomes, 5 μM) | Human Liver Microsome Clint (μL/min/mg protein) ([5]; human liver microsomes, 5 μM) | IC50 (NCI-H929 cells; 24 hrs) [nM] | IC50 (OPM-2 cells; Homo sapiens, OPM-2, 24 h) [nM] | IC50 (OPM-2 cells; 24 hours) [nM]
5 | Cc1c2c(nn1C)CSCc1cc(n(C)n1)CSc1cc(c3ccccc3c1)OCCCn1c(C(=O)O)c(Cl)c3c-2c(Cl)ccc31 [Cpd. No. 9, (Z)-1^3,1^5-dichloro-2^1,2^5,6^1-trimethyl-1^1H,2^1H,6^1H-10-oxa-4,8-dithia-1(4,1)-indola-2(4,3),6(3,5)-dipyrazola-9(3,1)-naphthalenacyclotridecaphane-1^2-carboxylic acid] | 14 | > 400 | 479 | – | – | – | – | – | – | – | 1250 | –
6 | Cc1c(C(=O)O)n2c3ccc(Cl)c(c13)-c1c(nn3c1CC(C)(C)C3)CSCc1cc(n(C)n1)CSc1cc(c3ccc(F)cc3c1)OCCC2 [Cpd. No. 3, (Z)-1^5-chloro-9^6-fluoro-1^3,2^5,2^5,6^1-tetramethyl-2^5,2^6-dihydro-1^1H,2^4H,6^1H-10-oxa-4,8-dithia-1(4,1)-indola-2(3,2)-pyrrolo[1,2-b]pyrazola-6(3,5)-pyrazola-9(3,1)-naphthalenacyclotridecaphane-1^2-carboxylic acid] | 14 | < 1 | 391 | – | – | – | – | – | – | – | 386 | –
7 | CC(=O)NCc1c(C(=O)O)n2c3ccc(Cl)c(c13)-c1c(nn(C)c1C)CSCc1cc(n(C)n1)CSc1cc(c3ccccc3c1)OCCC2 [Cpd. No. 12, (Z)-1^3-(acetamidomethyl)-1^5-chloro-2^1,2^5,6^1-trimethyl-1^1H,2^1H,6^1E-10-oxa-4,8-dithia-1(4,1)-indola-2(4,3),6(3,5)-dipyrazola-9(3,1)-naphthalenacyclotridecaphane-1^2-carboxylic acid] | 18 | – | 273 | 13.8 | 30.6 | 3.6 | – | – | – | – | 9860 | –
8 | Cc1c(C(=O)O)n2c3ccc(Cl)c(c13)-c1c(nn(C)c1C)CN(S(C)(=O)=O)Cc1cc(n(C)n1)CSc1cc(c3ccc(F)cc3c1)OCCC2 (atropisomer, axis not shown) [Cpd. No. 33, (R)-(Z)-1^5-chloro-9^6-fluoro-1^3,2^1,2^5, 6^1-tetramethyl-4-(methylsulfonyl)-1^1H,2^1H, 6′H-10-oxa-8-thia-4-aza-1(4,1)-indola-2(4,3),6(3,5)-dipyrazola-9(3,1)-naphthalenacyclotridecaphane-1^2-carboxylic acid] | 5 | – | – | – | – | – | 16.0 | 8.6 | <2.8 | 107 | – | 190
9 | CCc1c(C(=O)O)n2c3ccc(Cl)c(c13)-c1c(nn(C)c1C)CSCc1cc(n(C)n1)CSc1cc(c3ccccc3c1)OCCC2 [Cpd. No. 8, (Z)-1^5-chloro-1^3-ethyl-2^1,2^5,6^1-trimethyl-1^1H,2^1H,6^111-10-oxa-4,8-dithia-1(4,1)-indola-2(4,3),6(3,5)-dipyrazola-9(3,1)-naphthalenacyclotridecaphane-1^2-carboxylic acid] | 21 | – | 70 | 325 | 299 | 86.8 | – | – | – | – | 268 | –
10 | Cc1ccc2c3c(C)c(C(=O)O)n2CCCOc2cc(cc4cc(F)ccc24)SCc2cc(nn2C)CSCc2nn(C)c(C)c2-c13 [Cpd. No. 22, (Z)-9^6-fluoro-1^3, 1^5,2^1,2^5,6^1-pentamethyl-1^1H,2^1H,6^1H-10-oxa-4,8-dithia-1(4,1)-indola-2(4,3), 6(3,5)-dipyrazola-9(3,1)-naphthalenacyclotridecaphane-1^2-carboxylic acid] | 15 | – | 61 | 32 | 30.8 | 11.8 | – | – | – | – | 73 | –
11 | Cc1c(C(=O)O)n2c3ccc(Cl)c(c13)-c1c(nn3c1COCC3)CN(S(=O)(=O)C1CC1)Cc1cc(n(C)n1)CSc1cc(c3ccc(F)cc3c1)OCCC2 [Cpd. No. 31, (Z)-1^5-chloro-4-(cyclopropylsulfonyl)-9^6-fluoro-1^3, 6^1-di methyl-2^6,2^7-dihydro-1^1H,2^4H,6^1H-10-oxa-8-thia-4-aza-2(3,2)-pyrazolo[5,1-c][1,4]oxazina-1(4,1)-indola-6(3,5)-pyrazola-9(3,1)-naphthalenacyclotridecaphane-1^2-carboxylic acid] | 16 | – | 623 | 45.2 | 33 | 7.4 | – | – | – | – | 1940 | –
